The record followed here is US10513523B2, “Imidazopyrazines and pyrazolopyrimidines and their use as AMPA receptor modulators” (Janssen Pharmaceutica NV, priority 2015, dated 2019).

The test has as its target GluA1o-γ8 (GRIA1o-CACNG8 fusion construct; TARP γ8 dependent AMPA receptor) (Homo sapiens (Human), UniProt P42261+Q8WXS5). Put plainly: Calcium flux assay (FLIPR), inhibition of glutamate response of GluA1o-γ8 channel. As to conditions: HEK293 cells stably expressing GRIA1o-CACNG8 fusion; 15 μM glutamate; pIC50 = negative log of IC50 in molar; read-out: GluR1-γ8 (pIC50) (converted). The format is cell-based. The source says: This assay was used to test compounds for their ability to inhibit TARP γ8 dependent AMPA receptor activity. The AMPA receptor is a non-selective cation channel activated by glutamate. Ionotropic glutamate receptors normally desensitize too rapidly to allow detectable calcium influx in a FLIPR assay (Strange et al. (2006). “Functional characterisation of homomeric ionotropic glutamate receptors GluR1-GluR6 in a fluorescence-based high throughput screening assay.” Comb Chem High Throughput Screen 9(2): 147-158). But, this desensitization is incomplete, and a substantial steady-state current remains in the sustained presence of glutamate (Cho et al. (2007). “Two families of TARP isoforms that have distinct effects on the kinetic properties of AMPA receptors and synaptic currents.” Neuron 55(6): 890-904).
An in vitro assay was used to determine the potency of test compounds as inhibitors of the glutamate response of the channel formed by GluA1o-γ8. To ensure a 1:1 stoichiometry of GluA10 and γ8 subunits in the expressed channel, a fusion of the cDNAs for GRIA1o and CACNG8 was used. Following Shi et al (2009) “The stoichiometry of AMPA receptors and TARPs varies by neuronal cell type.” Neuron 62(5): […]), the C-terminus of the cDNA for GRI1o was fused to the N-terminus of the cDNA for γ8. The linker sequence was […]. […] A clonal cell line in HEK293 cells stably expressing this construct, with a geneticin selection marker, was generated for use in this assay. Cell expressing the GRIA1o-CACNG8 fusion construct were grown in a monolayer in 96- or 384-well microtiter plates. They were washed with assay buffer (135 mM NaCl, 4 mM KCl, 3 mM CaCl2, 1 mM MgCl2, 5 mM glucose, 10 mM HEPES, pH 7.4, 300 mOs) using a Biotek EL405 plate washer. The cells were then loaded with a calcium-sensitive dye (Calcium-5 or Calcium-6, Molecular Devices) and the test compounds at a range of concentrations. Calcium flux following the addition of 15 μM glutamate was monitored using a Molecular Devices FLIPR Tetra.
The fluorescence in each well was normalized to the fluorescence of negative and positive control wells. […] The responses to glutamate as functions of the test compound concentrations were fitted to a four-parameter logistic function. The fitted parameter corresponding to the midpoint was taken to be the potency of inhibition of the compound.

Chain of GluA1o-γ8 (GRIA1o-CACNG8 fusion construct; TARP γ8 dependent AMPA receptor) (P42261 other isoform, or with tags, fused parts or gaps): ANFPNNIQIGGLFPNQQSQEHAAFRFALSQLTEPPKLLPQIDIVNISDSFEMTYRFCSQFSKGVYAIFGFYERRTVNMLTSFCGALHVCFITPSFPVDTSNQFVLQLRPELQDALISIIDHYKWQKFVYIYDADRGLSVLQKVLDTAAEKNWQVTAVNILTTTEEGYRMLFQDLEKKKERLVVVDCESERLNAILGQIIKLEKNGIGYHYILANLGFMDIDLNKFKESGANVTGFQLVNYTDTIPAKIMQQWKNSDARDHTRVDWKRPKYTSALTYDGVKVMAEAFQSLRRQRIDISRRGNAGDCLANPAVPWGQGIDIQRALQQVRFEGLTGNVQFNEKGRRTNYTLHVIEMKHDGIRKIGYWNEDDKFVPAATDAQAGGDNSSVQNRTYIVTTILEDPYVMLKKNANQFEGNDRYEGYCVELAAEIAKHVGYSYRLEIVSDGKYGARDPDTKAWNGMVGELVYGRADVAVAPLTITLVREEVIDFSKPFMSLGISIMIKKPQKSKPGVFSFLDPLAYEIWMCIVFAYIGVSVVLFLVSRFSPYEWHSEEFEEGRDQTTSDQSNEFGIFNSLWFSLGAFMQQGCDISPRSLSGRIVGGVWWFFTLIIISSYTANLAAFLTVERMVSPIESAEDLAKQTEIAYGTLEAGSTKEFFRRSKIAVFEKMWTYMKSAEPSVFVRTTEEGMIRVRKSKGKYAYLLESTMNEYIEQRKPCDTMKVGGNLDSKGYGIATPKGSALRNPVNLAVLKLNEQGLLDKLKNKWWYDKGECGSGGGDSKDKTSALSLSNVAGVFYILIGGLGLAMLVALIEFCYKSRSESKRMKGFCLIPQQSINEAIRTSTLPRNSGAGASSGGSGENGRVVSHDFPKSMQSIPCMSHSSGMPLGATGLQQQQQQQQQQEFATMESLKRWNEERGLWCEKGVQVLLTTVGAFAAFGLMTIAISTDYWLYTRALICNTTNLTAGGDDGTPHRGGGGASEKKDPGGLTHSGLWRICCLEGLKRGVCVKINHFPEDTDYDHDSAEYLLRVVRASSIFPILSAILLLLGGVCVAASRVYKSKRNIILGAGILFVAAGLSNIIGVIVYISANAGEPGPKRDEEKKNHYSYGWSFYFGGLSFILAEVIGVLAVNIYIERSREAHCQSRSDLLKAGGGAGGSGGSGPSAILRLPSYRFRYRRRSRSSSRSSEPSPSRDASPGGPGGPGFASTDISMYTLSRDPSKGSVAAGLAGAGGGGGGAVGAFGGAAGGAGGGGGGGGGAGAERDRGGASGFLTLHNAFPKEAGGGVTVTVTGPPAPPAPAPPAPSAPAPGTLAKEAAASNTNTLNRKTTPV

As for `O=S1(=O)Cc2cc(-c3c(-c4ccc(F)cc4)nc4c(N5CCC(O)CC5)nccn34)ccc2N1` [Example 119, 1-[3-(2,2-Dioxo-1,3-dihydro-2,1-benzothiazol-5-yl)-2-(4-fluorophenyl)imidazo[1,2-a]pyrazin-8-yl]piperidin-4-ol], the IC50 was 3.16 nM.

On to `O=c1[nH]c2ccc(-c3c(-c4ccc(F)cc4)nc4c(N5CCOCC5)ncc(Cl)n34)cc2[nH]1` [Example 82, 5-[5-Chloro-2-(4-fluorophenyl)-8-morpholino-imidazo[1,2-a]pyrazin-3-yl]-1,3-dihydrobenzimidazol-2-one], for which the IC50 was 0.316 nM.

As for `O=C(Nc1ccccn1)c1nc2c(N3CCOCC3)nccn2c1-c1ccc2[nH]c(=O)[nH]c2c1` [Example 221, 8-Morpholino-3-(2-oxo-1,3-dihydrobenzimidazol-5-yl)-N-(2-pyridyl)imidazo[1,2-a]pyrazine-2-carboxamide], the IC50 is 31.6 nM.

For the compound `O=C1Cc2cc(-c3c(-c4ccc(F)cc4)nc4c(N5CCC6(CC5)OCCO6)nccn34)ccc2N1` [Example 55, 5-[8-(1,4-Dioxa-8-azaspiro[4.5]decan-8-yl)-2-(4-fluorophenyl)imidazo[1,2-a]pyrazin-3-yl]indolin-2-one], the IC50 was 0.2 nM.

For the compound `CC(=O)N[C@H]1CCN(c2nccn3c(-c4ccc5[nH]c(=O)[nH]c5c4)c(-c4ccc(F)cc4)nc23)C1` [Example 98, N-[(3S)-1-[2-(4-Fluorophenyl)-3-(2-oxo-1,3-dihydrobenzimidazol-5-yl)imidazo[1,2-a]pyrazin-8-yl]pyrrolidin-3-yl]acetamide], the IC50 is 2.51 nM.

On to `O=C1Cc2cc(-c3c(-c4ccc(F)cc4)nn4c(N5CCS(=O)(=O)CC5)nccc34)ccc2N1` [Example 170, 5-[7-(1,1-Dioxo-1,4-thiazinan-4-yl)-2-(4-fluorophenyl)pyrazolo[1,5-c]pyrimidin-3-yl]indolin-2-one], for which the IC50 was 0.631 nM.

`CC(C)(C)c1nn2cnc(C(F)(F)F)cc2c1-c1ccc2[nH]c(=O)sc2c1` [Example 232, 6-[2-tert-Butyl-5-(trifluoromethyl)pyrazolo[1,5-c]pyrimidin-3-yl]-3H-1,3-benzothiazol-2-one]: the IC50 was 316 nM.

As for `CC(C)(C)OC(=O)N1CCN(c2nccn3c(-c4ccc(O)cc4)c(-c4ccc(F)cc4)nc23)CC1` [Example 3, tert-Butyl 4-[2-(4-fluorophenyl)-3-(4-hydroxyphenyl)imidazo[1,2-a]pyrazin-8-yl]piperazine-1-carboxylate], the IC50 was 631 nM.

For `O=c1[nH]c2ccc(-c3c(-c4ccc(F)cc4)nc4c(N5CCOCC5)nccn34)cc2s1` [Example 118, 6-[2-(4-Fluorophenyl)-8-morpholino-imidazo[1,2-a]pyrazin-3-yl]-3H-1,3-benzothiazol-2-one], the IC50 was 0.316 nM.

Regarding `CC(C)(C)OC(=O)N1CCN(c2ncc(Br)n3c(-c4ccc5c(c4)CC(=O)N5)c(Cc4ccccc4)nc23)CC1` [Example 112, tert-Butyl 4-(2-benzyl-5-bromo-3-(2-oxoindolin-5-yl)imidazo[1,2-a]pyrazin-8-yl)piperazine-1-carboxylate], the IC50 is 0.794 nM.

For the compound `N#Cc1ccc(-c2nc3c(N4CCOCC4)nccn3c2-c2ccc3c(c2)CC(=O)N3)cc1` [Example 102, 4-[8-Morpholino-3-(2-oxoindolin-5-yl)imidazo[1,2-a]pyrazin-2-yl]benzonitrile], the IC50 is 2 nM.

Turning to `COC1CCN(c2nccc3c(-c4ccc5[nH]ncc5c4)c(C(C)C)nn23)CC1` [Example 237, 3-(1H-indazol-5-yl)-2-isopropyl-7-(4-methoxy-1-piperidyl)pyrazolo[1,5-c]pyrimidine], the IC50 was 126 nM.

As for `CNc1nccn2c(-c3ccc4c(c3)CC(=O)N4)c(-c3ccc(F)cc3)nc12` [Example 167, 5-[2-(4-Fluorophenyl)-8-(methylamino)imidazo[1,2-a]pyrazin-3-yl]indolin-2-one], the IC50 was 25.1 nM.

On to `CC(=O)N1CCN(c2nccn3c(-c4ccc5[nH]ncc5c4)c(Cc4ccccc4)nc23)CC1` [Example 18, 1-[4-[2-Benzyl-3-(1H-indazol-5-yl)imidazo[1,2-a]pyrazin-8-yl]piperazin-1-yl]ethanone], for which the IC50 was 0.794 nM.

As for `O=C1Cc2cc(-c3c(-c4ccccc4)nc4c(C5=CCOCC5)nccn34)ccc2N1` [Example 131, 5-(8-(3,6-Dihydro-2H-pyran-4-yl)-2-phenylimidazo[1,2-a]pyrazin-3-yl)indolin-2-one], the IC50 was 7.94 nM.

Consider `Oc1ccc(-c2c(-c3ccc(F)cc3)nc3c(N4CCNCC4)nccn23)cc1` [Example 5, 4-[2-(4-Fluorophenyl)-8-piperazin-1-yl-imidazo[1,2-a]pyrazin-3-yl]phenol], for which the IC50 was 1260 nM.

For `O=C1Cc2cc(-c3c(C(=O)Nc4ccccc4)nc4c(N5CCOCC5)nccn34)ccc2N1` [Example 137, 8-Morpholino-3-(2-oxoindolin-5-yl)-N-phenylimidazo[1,2-a]pyrazine-2-carboxamide], the IC50 was 6.31 nM.

Regarding `CC(=O)N1CCN(c2nccn3c(-c4ccc5[nH]c(=O)[nH]c5c4)c(-c4ccc(C#N)cc4)nc23)CC1` [Example 106, 4-[8-(4-Acetylpiperazin-1-yl)-3-(2-oxo-1,3-dihydrobenzimidazol-5-yl)imidazo[1,2-a]pyrazin-2-yl]benzonitrile], the IC50 is 5.01 nM.

Take `C[C@H]1COCCN1c1nccn2c(-c3ccc4c(c3)CC(=O)N4)c(-c3ccc(F)cc3)nc12` [Example 43, 5-[2-(4-Fluorophenyl)-8-[(3S)-3-methylmorpholin-4-yl]imidazo[1,2-a]pyrazin-3-yl]indolin-2-one]: the IC50 was 0.631 nM.

On to `CN(C(=O)c1nc2c(N3CCOCC3)nccn2c1-c1ccc2[nH]c(=O)[nH]c2c1)c1ccccc1` [Example 145, N-Methyl-8-morpholino-3-(2-oxo-1,3-dihydrobenzimidazol-5-yl)-N-phenyl-imidazo[1,2-a]pyrazine-2-carboxamide], for which the IC50 was 501 nM.

Regarding `c1ccc(-c2nn3c(N4CCOCC4)nccc3c2-c2ccc3[nH]ncc3c2)cc1` [Example 233, 4-[3-(1H-Indazol-5-yl)-2-phenyl-pyrazolo[1,5-c]pyrimidin-7-yl]morpholine], the IC50 was 0.398 nM.

With `O=C1Cc2cc(-c3c(-c4ccc(F)cc4)nc4c(N5CC(CO)C5)nccn34)ccc2N1` [Example 64, 5-[2-(4-Fluorophenyl)-8-[3-(hydroxymethyl)azetidin-1-yl]imidazo[1,2-a]pyrazin-3-yl]indolin-2-one], the IC50 is 0.794 nM.

`O=c1[nH]c2ccc(-c3c(-c4ccc(F)cc4)nc4c(N5CC6(COC6)C5)nccn34)cc2[nH]1` [Example 26, 5-[2-(4-Fluorophenyl)-8-(6-oxa-2-azaspiro[3.3]heptan-2-yl)imidazo[1,2-a]pyrazin-3-yl]-1,3-dihydrobenzimidazol-2-one]: the IC50 was 5.01 nM.

For `COC1CN(c2nccc3c(-c4ccc5c(c4)CC(=O)N5)c(C4CCCC4)nn23)C1` [Example 195, 5-[2-Cyclopentyl-7-(3-methoxyazetidin-1-yl)pyrazolo[1,5-c]pyrimidin-3-yl]indolin-2-one], the IC50 was 316 nM.

`CC(C)(C)c1nn2c(N3CC(F)(F)C3)nccc2c1-c1ccc2c(c1)CC(=O)N2` [Example 183, 5-[2-tert-Butyl-7-(3,3-difluoroazetidin-1-yl)pyrazolo[1,5-c]pyrimidin-3-yl]indolin-2-one]: the IC50 is 63.1 nM.

For `O=C1Cc2cc(-c3c(-c4ccc(F)cc4)nc4c(N5CCCC5)nccn34)ccc2N1` [Example 45, 5-[2-(4-Fluorophenyl)-8-pyrrolidin-1-yl-imidazo[1,2-a]pyrazin-3-yl]indolin-2-one], the IC50 was 1 nM.

In the case of `O=C1Cc2cc(-c3c(C4CCCC4)nc4c(N5CCOCC5)nccn34)ccc2N1` [Example 57, 5-(2-Cyclopentyl-8-morpholino-imidazo[1,2-a]pyrazin-3-yl)indolin-2-one], the IC50 is 15.8 nM.

For the compound `Nc1nc2cc(-c3c(-c4ccc(F)cc4)nc4c(N5CCOCC5)nccn34)ccc2[nH]1` [Example 121, 5-[2-(4-Fluorophenyl)-8-morpholino-imidazo[1,2-a]pyrazin-3-yl]-1H-benzimidazol-2-amine], the IC50 is 631 nM.

For the compound `O=C1CN(c2nccn3c(-c4ccc5c(c4)CC(=O)N5)c(C(=O)c4ccccc4)nc23)CCN1` [Example 246, 5-[2-Benzoyl-8-(3-oxopiperazin-1-yl)imidazo[1,2-a]pyrazin-3-yl]indolin-2-one], the IC50 is 31.6 nM.
